Reference: article PMC6510909 (Investigational New Drugs, 2018)
Read-outs that look alike come from different tables or passages of the source.

Legend:
[1] = tested on: patients with previously untreated metastatic PDAC; experiment: Phase 1 efficacy: best overall response (RECIST v1.1), OS, PFS, duration of response; assay type: in vivo, human
Protocol: All patients provided written informed consent prior to enrollment.
Staging CT or MRI scans were performed at baseline and approximately every 8 weeks following Cycle 1 Day 1. Imaging modalities were maintained over the course of the study. Treatment was to continue in the absence of disease progression, unacceptable toxicity, consent withdrawal, or refusal of treatment. After discontinuation of treatment, patients were followed for safety for 30 days.
The efficacy analyses were conducted in all enrolled patients.

[2] = Plasma pharmacokinetics on Cycle 1 Day 15, noncompartmental; assay type: in vivo, human; conditions: for Cmax / half-life / Tmax / AUC: human, plasma, oral
Protocol: Blood samples were collected from patients prior to the MMB dose and at specified time points up to 24 h post-dose on Cycle 1 Day 15. Pharmacokinetic (PK) parameters were estimated using Phoenix WinNonlin® software (Certara USA, Inc., Princeton, NJ) using standard noncompartmental methods.

[3] = 100 mg MMB QD n = 7, + nab-P + G
[4] = 150 mg MMB BID n = 3, + nab-P + G
[5] = 150 mg MMB QD n = 4, + nab-P + G
[6] = 200 mg MMB BID n = 4, + nab-P + G
[7] = 200 mg MMB QD n = 7, + nab-P + G
[8] = all cohorts, MMB + nab-P + G, n = 25
[9] = overall study population, MMB + nab-P + G

## N#CCNC(=O)c1ccc(-c2ccnc(Nc3ccc(N4CCOCC4)cc3)n2)cc1 [MMB, momelotinib]
[1]; [3]
  Best overall response: CR: 0 n, (%)
  Best overall response: Not evaluable: 2 (28.6) n, (%)
  Best overall response: ORR (CR + PR): 2 (28.6) n, (%)
  Best overall response: PD: 1 (14.3) n, (%)
  Best overall response: PR: 2 (28.6) n, (%)
  Best overall response: SD: 2 (28.6) n, (%)
[1]; [4]
  Best overall response: CR: 0 n, (%)
  Best overall response: Not evaluable: 1 (33.3) n, (%)
  Best overall response: ORR (CR + PR): 1 (33.3) n, (%)
  Best overall response: PD: 0 n, (%)
  Best overall response: PR: 1 (33.3) n, (%)
  Best overall response: SD: 1 (33.3) n, (%)
[1]; [5]
  Best overall response: CR: 0 n, (%)
  Best overall response: Not evaluable: 0 n, (%)
  Best overall response: ORR (CR + PR): 1 (25.0) n, (%)
  Best overall response: PD: 1 (25.0) n, (%)
  Best overall response: PR: 1 (25.0) n, (%)
  Best overall response: SD: 2 (50.0) n, (%)
[1]; [6]
  Best overall response: CR: 0 n, (%)
  Best overall response: Not evaluable: 0 n, (%)
  Best overall response: ORR (CR + PR): 0 n, (%)
  Best overall response: PD: 0 n, (%)
  Best overall response: PR: 0 n, (%)
  Best overall response: SD: 4 (100.0) n, (%)
[1]; [7]
  Best overall response: CR: 0 n, (%)
  Best overall response: Not evaluable: 0 n, (%)
  Best overall response: ORR (CR + PR): 3 (42.9) n, (%)
  Best overall response: PD: 0 n, (%)
  Best overall response: PR: 3 (42.9) n, (%)
  Best overall response: SD: 4 (57.1) n, (%)
[1]; [8]
  Complete responses (CRs) across the dose cohorts: no CRs
  Partial responses (PRs) across the dose cohorts: 7
  Stable disease as the best response, patients: 52%
[1]; all cohorts, MMB + nab-P + G, n = 25, 95% CI 12.1%–49.4%
  Objective response rate (ORR), overall study population: 28%
[1]; [9]
  Median (95% CI) OS: 8.7 (6.7, 18.8) months
  Median (95% CI) PFS: 5.7 (5.3, 7.2) months
[1]; the 7 patients with a PR
  Median (95% CI) duration of response: 4.0 (0.5, not reached) months
[2]; 100-200 mg MMB
  Increases in exposure with dose: less than dose-proportional
[2]; Cycle 1 Day 15
  AUCtau, 200 mg once-daily compared with 100 mg once-daily: less than 2 fold
  Cmax, 200 mg once-daily compared with 100 mg once-daily: less than 2 fold
[2]; 100 mg, 100 mg MMB QD n = 6, steady state, mean (% coefficient of variation), read-out: Cmax
  Cmax: 258 ng/mL
[2]; 100 mg, 100 mg MMB QD n = 6, steady state, median (first quarter, third quarter), read-out: T 1/2 (converted)
  half-life: 5.4 h
[2]; 100 mg, 100 mg MMB QD n = 6, steady state, median (first quarter, third quarter), read-out: Tmax
  Tmax: 4.5 h
[2]; 100 mg, 100 mg MMB QD n = 6, steady state, mean (% coefficient of variation)
  AUC: 2000 ng·h/mL
[2]; 150 mg, 150 mg MMB BID n = 1, steady state
  AUC: 1520 ng·h/mL
[2]; 150 mg, 150 mg MMB BID n = 1, steady state, read-out: Cmax
  Cmax: 215 ng/mL
[2]; 150 mg, 150 mg MMB BID n = 1, steady state, read-out: T 1/2 (converted)
  half-life: 5 h
[2]; 150 mg, 150 mg MMB BID n = 1, steady state, read-out: Tmax
  Tmax: 3 h
[2]; 150 mg, 150 mg MMB QD n = 3, steady state, mean (% coefficient of variation), read-out: Cmax
  Cmax: 200 ng/mL
[2]; 150 mg, 150 mg MMB QD n = 3, steady state, median (first quarter, third quarter), read-out: T 1/2 (converted)
  half-life: 6.6 h
[2]; 150 mg, 150 mg MMB QD n = 3, steady state, median (first quarter, third quarter), read-out: Tmax
  Tmax: 3.2 h
[2]; 150 mg, 150 mg MMB QD n = 3, steady state, mean (% coefficient of variation)
  AUC: 1680 ng·h/mL
[2]; 200 mg, 200 mg MMB BID n = 3, steady state, mean (% coefficient of variation), read-out: Cmax
  Cmax: 330 ng/mL
[2]; 200 mg, 200 mg MMB BID n = 3, steady state, median (first quarter, third quarter), read-out: T 1/2 (converted)
  half-life: 5.5 h
[2]; 200 mg, 200 mg MMB BID n = 3, steady state, median (first quarter, third quarter), read-out: Tmax
  Tmax: 3 h
[2]; 200 mg, 200 mg MMB BID n = 3, steady state, mean (% coefficient of variation)
  AUC: 1980 ng·h/mL
[2]; 200 mg, 200 mg MMB QD n = 6, steady state, mean (% coefficient of variation), read-out: Cmax
  Cmax: 364 ng/mL
[2]; 200 mg, 200 mg MMB QD n = 6, steady state, median (first quarter, third quarter), read-out: T 1/2 (converted)
  half-life: 5.3 h
[2]; 200 mg, 200 mg MMB QD n = 6, steady state, median (first quarter, third quarter), read-out: Tmax
  Tmax: 3.5 h
[2]; 200 mg, 200 mg MMB QD n = 6, steady state, mean (% coefficient of variation)
  AUC: 3340 ng·h/mL
[2]; Cycle 1 Day 15, across dose levels, approximately, read-out: Median terminal half-life
  half-life: 5 to 6.6 h
[2]; Cycle 1 Day 15, across dose levels, approximately, read-out: Time to peak plasma concentration after the first dose of MMB
  Tmax: 3 to 4.5 h
[2]; across dose levels, approximately, read-out: Maximum plasma concentration (Cmax), overall
  Cmax: ~300 ng/mL
[2]; converted from approximately 300 ng/mL, read-out: Maximum plasma concentration (Cmax), overall
  Cmax: 720 nM
